Tests used:
Ki-67 = experiment: Biopsy immunohistochemistry, Ki-67 proliferating cells in the epidermis; type: in vivo, human; settings: lesion biopsy at end of treatment; control mean 83/mm^3; P-0.027 (unpaired T test)
Description: (§1) Assessments were done at weeks 0, 2, 4 and 6 on the low potency treatment and at 8, 10 and 12 on the higher dose formulation, provided there were no signs or laboratory evidence of toxicity. Clinical scoring was done at each attendance and areas traced at the start and finish of treatment. Biopsies from active and control lesions were performed at the end of treatment or at withdrawal. Biopsies were not done if an adverse event such as a reaction to the application occurred as this would influence the measures being assessed.
(§2) In biopsies, epidermal thickness was measured and immunoperoxidase immunohistochemistry done using the following antibodies to count cells in a blinded fashion:
(§3) Thus, antibody Ki-67 was used to give a measure of hyperproliferation in the epidermis and CD4 helper lymphocytes were used to give a measure of auto-immune activity which drives psoriasis.
(§4) Cell counting in tissues was automated, using computer assisted image analysis (Seescan). Data was analysed by Student's T test for paired data and Wilcoxon's test.

chronic plaque psoriasis = experiment: Double blind left-right comparison of topical sirolimus in chronic plaque psoriasis (Example 3); type: in vivo, human
Description: A double blind, left-right comparison of the effect of applying topical sirolimus in formulations as described in Examples 1 and 2, to 24 patients with chronic (over three months) plaque psoriasis was conducted. (22 out of the 24 patients were eventually analysed.) A single target plaque was treated for the first 6 weeks with the lower potency formulation of Example 2. After this the active treatment was increased to the higher potency formulation of Example 1 for 6 weeks unless a clear improvement on one side had already occurred.
Subjects were all aged over 18 years, were able to apply creams and had no other significant medical problems. Transaminases were not more than twice the upper limit of normal and subjects were selected to avoid those likely to have a holiday in sunlight during the 6-12 weeks of the trial.
Before the trial started, there was a two week washout period in which only bland emollients were applied to the target lesions.
Treatment was randomised and double blind. Hands were thoroughly washed between the twice daily application of the test formulations. The active formulation was applied consistently to one plaque while a control comprising only the vehicle base was applied consistently to the plaque on the opposite side. Where possible the arms or elbows were selected as target areas as cross contamination is less likely at these sites.
as §1
The lesions were also assessed at fortnightly intervals with subjective scoring on a scale of 0-8 for erythema, thickening, and scaling. […] These included pulsed A scan ultrasound measurement of lesion thickness and erythema measured with a reflectance erythema metre, both were averaged over 5 areas in each psoriatic lesion and were validated using a previous study which was performed using betamethasome as a reference.
At each visit we measured the full blood count, biochemistry, including urea, electrolytes, liver enzymes, bilirubin, calcium, magnesium, uric acid, glucose, amylase, muscle enzymes, lipids and cholesterol. […]
as §4

[1] = Skin biopsy tissue concentration, upper and lower half, HPLC (Example 2); type: in vivo, human; settings: 7 hours after application, 2.2% sirolimus in capric acid:isopropyl myristate:benzyl alcohol 50:40:10; for concentration at 7 h: human, skin biopsy, topical, 2.2 % sirolimus in the formulation, Subject A
Description: (§5) A formulation of sirolimus (2.2%) in a vehicle comprising isopropyl myristate 40%, benzyl alcohol 10% and capric acid 50% was tested in single application experiments on three individuals with normal skin. […] After 7 hours biopsy samples were taken from two of the individuals. These were bisected in parallel with the surface to give an upper and lower half, roughly corresponding to the epidermis and dermis. The skin was homogenised with acetonitrile and sirolimus concentration was determined by HPLC.

[2] = Venous blood sirolimus levels after single topical application (MSGCMS); type: in vivo, human; settings: normal skin, 4, 7 and 24 hours
Description: A formulation was formed of 8% sirolimus and 92% of a vehicle of capric acid (50%) with benzyl alcohol (50%). This was tested in single application experiments on four individuals with normal skin.
as §5

CD4 helper lymphocytes = experiment: Biopsy immunohistochemistry, CD4 helper lymphocytes; type: in vivo, human; settings: lesion biopsy at end of treatment; control 61/mm^3; P-0.0026 (unpaired T-test)
Description: as §1, §2, §3, §4

[3] = Skin biopsy tissue concentration, four 0.7 mm horizontal sections, acetonitrile extraction (Example 1); type: in vivo; settings: human, 8 % sirolimus in the formulation
Description: In parallel, skin biopsies were taken from the individuals after 7 hours, the biopsy samples were glued to a glass slide and serially sectioned horizontally into 4 layers each 0.7 mm thick and extracted with acetonitrile.

CO[C@H]1C[C@@H]2CC[C@@H](C)[C@@](O)(O2)C(=O)C(=O)N2CCCC[C@H]2C(=O)O[C@H]([C@H](C)C[C@@H]2CC[C@@H](O)[C@H](OC)C2)CC(=O)[C@H](C)/C=C(\C)[C@@H](O)[C@@H](OC)C(=O)[C@H](C)C[C@H](C)/C=C/C=C/C=C/1C [sirolimus]
Ki-67 proliferating cells, mean (Ki-67): 55 /mm^3
contact sensitivity to the topical preparations (chronic plaque psoriasis; 22 analysed patients, one to benzyl alcohol, one to sirolimus and one to both): Three of the twenty-two patients developed contact sensitivity
Ultrasound thickness, mean (chronic plaque psoriasis; psoriatic lesion, topical twice daily, 2.2% then 8% formulation, vehicle control 2.96, NS): 2.99 mm
Erythema measurement, mean (chronic plaque psoriasis; reflectance erythema metre, topical twice daily, 2.2% then 8% formulation, vehicle control 33.1, NS): 34.5 arbitrary units
Clinical Score, mean (chronic plaque psoriasis; scale of 0-24, high values indicating a better result, final score, topical twice daily, 2.2% formulation 6 weeks then 8% formulation 6 weeks, vehicle control 9.1, p = 0.032): 11.2
Sirolimus Concentration, lower skin segment ([1]; Subject B, Lower (2), roughly dermis): 0.5 µg/mg
Sirolimus Concentration, upper skin segment ([1]; Subject B, Upper (1), roughly epidermis): 1.5 µg/mg
concentration at 7 h ([1]; lower half (roughly dermis), Lower (2), roughly dermis, read-out: Sirolimus Concentration, lower skin segment): 333000 ng/g
concentration at 7 h ([1]; upper half (roughly epidermis), Upper (1), roughly epidermis, read-out: Sirolimus Concentration, upper skin segment): 0 ng/g
sirolimus levels in venous blood ([2]; 2.2% sirolimus in isopropyl myristate 40%, benzyl alcohol 10%, capric acid 50%, three individuals, MSGCMS): no significant levels of sirolimus were detected
sirolimus levels in venous blood ([2]; 8% sirolimus in capric acid:benzyl alcohol 50:50, four individuals, MSGCMS detects down to 0.1 ng/ml): no significant levels of sirolimus were detected
CD4 cells, mean (CD4 helper lymphocytes): 32.7 /mm^3
concentration at 7 h ([3]; section 1 (surface, 0-0.7 mm), topical, subject A, section 1 (surface, 0-0.7 mm), 7 hours after application, 8% sirolimus in capric acid:benzyl alcohol 50:50, read-out: Sirolimus concentration, skin section 1): 59000 ng/g
concentration at 7 h ([3]; section 1 (surface, 0-0.7 mm), topical, subject B, section 1 (surface, 0-0.7 mm), 7 hours after application, 8% sirolimus in capric acid:benzyl alcohol 50:50, read-out: Sirolimus concentration, skin section 1): 288000 ng/g
concentration at 7 h ([3]; section 1 (surface, 0-0.7 mm), topical, subject C, section 1 (surface, 0-0.7 mm), 7 hours after application, 8% sirolimus in capric acid:benzyl alcohol 50:50, read-out: Sirolimus concentration, skin section 1): 301000 ng/g
concentration at 7 h ([3]; section 1 (surface, 0-0.7 mm), topical, subject D, section 1 (surface, 0-0.7 mm), 7 hours after application, 8% sirolimus in capric acid:benzyl alcohol 50:50, read-out: Sirolimus concentration, skin section 1): 216000 ng/g
concentration at 7 h ([3]; section 2 (0.7-1.4 mm), topical, subject B, section 2 (0.7-1.4 mm), 7 hours after application, 8% sirolimus in capric acid:benzyl alcohol 50:50, read-out: Sirolimus concentration, skin section 2): 108000 ng/g
concentration at 7 h ([3]; section 2 (0.7-1.4 mm), topical, subject C, section 2 (0.7-1.4 mm), 7 hours after application, 8% sirolimus in capric acid:benzyl alcohol 50:50, read-out: Sirolimus concentration, skin section 2): 144000 ng/g
concentration at 7 h ([3]; section 2 (0.7-1.4 mm), topical, subject D, section 2 (0.7-1.4 mm), 7 hours after application, 8% sirolimus in capric acid:benzyl alcohol 50:50, read-out: Sirolimus concentration, skin section 2): 126000 ng/g
concentration at 7 h ([3]; section 3, topical, subject A, section 3, 7 hours after application, 8% sirolimus in capric acid:benzyl alcohol 50:50, read-out: Sirolimus concentration, skin section 3): 255000 ng/g
concentration at 7 h ([3]; section 3, topical, subject B, section 3, 7 hours after application, 8% sirolimus in capric acid:benzyl alcohol 50:50, read-out: Sirolimus concentration, skin section 3): 173000 ng/g
concentration at 7 h ([3]; section 3, topical, subject C, section 3, 7 hours after application, 8% sirolimus in capric acid:benzyl alcohol 50:50, read-out: Sirolimus concentration, skin section 3): 339000 ng/g
concentration at 7 h ([3]; section 3, topical, subject D, section 3, 7 hours after application, 8% sirolimus in capric acid:benzyl alcohol 50:50, read-out: Sirolimus concentration, skin section 3): 256000 ng/g
concentration at 7 h ([3]; section 4, topical, subject A, section 4, 7 hours after application, 8% sirolimus in capric acid:benzyl alcohol 50:50, read-out: Sirolimus concentration, skin section 4): 239000 ng/g
concentration at 7 h ([3]; section 4, topical, subject B, section 4, 7 hours after application, 8% sirolimus in capric acid:benzyl alcohol 50:50, read-out: Sirolimus concentration, skin section 4): 214000 ng/g
concentration at 7 h ([3]; section 4, topical, subject C, section 4, 7 hours after application, 8% sirolimus in capric acid:benzyl alcohol 50:50, read-out: Sirolimus concentration, skin section 4): 370000 ng/g
concentration at 7 h ([3]; section 4, topical, subject D, section 4, 7 hours after application, 8% sirolimus in capric acid:benzyl alcohol 50:50, read-out: Sirolimus concentration, skin section 4): 241000 ng/g
